Measurements published in patent US20240228488A1 (TAKEDA PHARMACEUTICAL COMPANY LIMITED, priority 2021, published 2024).

Assays:
[1] = target: human activated kallikrein enzyme (Homo sapiens, UniProt P03952); test: Plasma kallikrein inhibition, fluorogenic PFR-AMC substrate, 500 pM activated kallikrein format; assay type: biochemical; details: 500 pM activated kallikrein, 300 uM PFR-AMC, 30 min preincubation, 10 min reaction; read-out: Primary Dose Response Assay: Average EC50
Method in brief: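 500 pM enz + cpd, 30 min RT preinc; start w/ PFR-AMC 300 uM; 10 min RT; Ex380/Em460. Buffer: Tris 20 mM pH 7.5, EDTA 1 mM, NaCl 150 mM, PEG-400 0.1%, Triton 0.1%. EC50.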

plasma kallikrein = target: T1, plasma kallikrein (Homo sapiens, UniProt P03952); test: Neat human plasma assay, FXIIa contact pathway-activated, PFR-AMC substrate; assay type: biochemical; details: citrated human plasma 78% final, 10 nM human FXIIa, 100 μM PFR-AMC; read-out: Human Plasma Assay: IC90
T1 construct: from tissue
T1 sequence (P03952 391-638 limits assumed): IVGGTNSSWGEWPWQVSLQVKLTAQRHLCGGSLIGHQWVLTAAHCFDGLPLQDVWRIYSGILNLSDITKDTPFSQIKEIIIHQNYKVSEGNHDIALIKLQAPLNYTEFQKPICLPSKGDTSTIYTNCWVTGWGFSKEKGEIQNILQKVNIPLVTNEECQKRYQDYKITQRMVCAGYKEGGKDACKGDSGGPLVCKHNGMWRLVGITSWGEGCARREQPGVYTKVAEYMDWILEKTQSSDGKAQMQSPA
T1 sequence (P03952 20-390 partner limits assumed): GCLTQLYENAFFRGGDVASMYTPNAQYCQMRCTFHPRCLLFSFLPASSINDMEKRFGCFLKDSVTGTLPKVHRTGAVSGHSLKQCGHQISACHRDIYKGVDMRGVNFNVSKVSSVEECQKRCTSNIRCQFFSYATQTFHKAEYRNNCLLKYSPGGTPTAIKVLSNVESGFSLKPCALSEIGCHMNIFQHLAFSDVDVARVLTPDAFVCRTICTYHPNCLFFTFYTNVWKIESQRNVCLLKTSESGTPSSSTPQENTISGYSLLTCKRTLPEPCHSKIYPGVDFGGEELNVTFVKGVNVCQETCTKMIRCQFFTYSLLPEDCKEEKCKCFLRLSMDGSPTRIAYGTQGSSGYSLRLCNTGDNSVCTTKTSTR
Method in brief: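 Citrated human plasma (78% final) with compound, contact-activated by 10 nM human FXIIa in pKal buffer pH 7.5, with 100 μM PFR-AMC. Fluorescence (360/480 nm) followed 5 min at room temperature; rates versus concentration fitted by 4-parameter equation for IC50/IC90.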

Sequence of human activated kallikrein enzyme (P03952 391-638 limits assumed): as the sequence (P03952 391-638 limits assumed) above
Sequence of human activated kallikrein enzyme (P03952 20-390 partner limits assumed): as the sequence (P03952 20-390 partner limits assumed) above

| Compound | EC50 [1] [nM] | IC90 (plasma kallikrein) [nM] |
| --- | --- | --- |
| O=C(Nc1cc(NCc2cn3cc(C4CC4)ccc3n2)ccn1)[C@H]1C[C@@H]1c1cc(Cl)ccc1-n1cnnn1 (racemic) [Example 287, rac-(1S*,2S*)-2-(5-chloro-2-(1H-tetrazol-1-yl)phenyl)-N-(4-(((6-cyclopropylimidazo[1,2-a]pyridin-2-yl)methyl)amino)pyridin-2-yl)cyclopropane-1-carboxamide] | < 1 | 10000 to 48000 |
| CS(=O)(=O)Nc1cc(C2CC2)cn2cc(CNc3ccnc(NC(=O)[C@H]4C[C@@H]4c4cccc(Cl)c4)c3)nc12 [Example 126, (1S,2S)-2-(3-chlorophenyl)-N-(4-(((6-cyclopropyl-8-(methylsulfonamido)imidazo[1,2-a]pyridin-2-yl)methyl)amino)pyridin-2-yl)cyclopropane-1-carboxamide] | < 1 | 10000 to 48000 |
| Cc1ccnc([C@H]2C[C@@H]2C(=O)Nc2cc(N(C)Cc3cn4cc(C5CC5)cc(S(C)(=O)=O)c4n3)nc(C)n2)n1 [Example I-161, (1S,2S)-N-(6-(((6-cyclopropyl-8-(methylsulfonyl)imidazo[1,2-a]pyridin-2-yl)methyl)(methyl)amino)-2-methylpyrimidin-4-yl)-2-(4-methylpyrimidin-2-yl)cyclopropane-1-carboxamide] | < 1 | 1500 to 10000 |
| O=C(Nc1cc(NCc2cn3cc(C4CC4)cc(CCO)c3n2)ccn1)[C@H]1C[C@@H]1c1cccc(Cl)c1 [Example 292, (1S,2S)-2-(3-chlorophenyl)-N-(4-(((6-cyclopropyl-8-(2-hydroxyethyl)imidazo[1,2-a]pyridin-2-yl)methyl)amino)pyridin-2-yl)cyclopropane-1-carboxamide] | < 1 | 1500 to 10000 |
| CS(=O)(=O)c1cc(C2CC2)cn2cc(CNc3cc(NC(=O)[C@H]4C[C@@H]4c4cccc(Cl)c4)ncn3)nc12 [Example I-162, (1S,2S)-2-(3-chlorophenyl)-N-(6-(((6-cyclopropyl-8-(methylsulfonyl)imidazo[1,2-a]pyridin-2-yl)methyl)amino)pyrimidin-4-yl)cyclopropane-1-carboxamide] | 1 to 10 | 1500 to 10000 |
| Cc1nc([C@H]2C[C@@H]2C(=O)Nc2cc(N[C@H](C)c3cn4cc(C5CC5)cc(N5CC(=O)N(C)C5=O)c4n3)ncn2)ncc1F (relative stereo) [Example 492, rac-(-(1S*,2S*)-N-(6-(((R)-1-(6-cyclopropyl-8-(3-methyl-2,4-dioxoimidazolidin-1-yl)imidazo[1,2-a]pyridin-2-yl)ethyl)amino)pyrimidin-4-yl)-2-(5-fluoro-4-methylpyrimidin-2-yl)cyclopropane-1-carboxamide] | < 1 | 400 to 1500 |
| Cc1ccnc([C@H]2C[C@@H]2C(=O)Nc2cc(NCc3cn4cc(C5CC5)cc(N5CC(=O)N(C)C5=O)c4n3)ccn2)n1 (racemic) [Example I-208, rac-(1S*,2S*)-N-(4-(((6-cyclopropyl-8-(3-methyl-2,4-dioxoimidazolidin-1-yl)imidazo[1,2-a]pyridin-2-yl)methyl)amino)pyridin-2-yl)-2-(4-methylpyrimidin-2-yl)cyclopropane-1-carboxamide] | < 1 | < 400 |
| Cc1ccnc([C@H]2C[C@@H]2C(=O)Nc2cc(NCc3cn4cc(C5CC5)cc(N5CC(=O)N(CC(=O)O)C5=O)c4n3)ncn2)n1 [Example 465] | < 1 | 400 to 1500 |
| O=C(Nc1cc(NCc2cn3cc(C4CC4)cc(N4CC(F)C4)c3n2)ccn1)[C@H]1C[C@@H]1c1cccc(Cl)c1 [Example 125, (1S,2S)-2-(3-chlorophenyl)-N-(4-(((6-cyclopropyl-8-(3-fluoroazetidin-1-yl)imidazo[1,2-a]pyridin-2-yl)methyl)amino)pyridin-2-yl)cyclopropane-1-carboxamide] | 1 to 10 | 10000 to 48000 |
| Cc1ccnc([C@H]2C[C@@H]2C(=O)Nc2cc(NCc3cn4cc(C5CC5)cc(N5CC(=O)NC5=O)c4n3)ncn2)n1 (racemic) [Example 392, rac-(1S*,2S*)-N-(6-(((6-cyclopropyl-8-(2,4-dioxoimidazolidin-1-yl)imidazo[1,2-a]pyridin-2-yl)methyl)amino)pyrimidin-4-yl)-2-(4-methylpyrimidin-2-yl)cyclopropane-1-carboxamide] | < 1 | 400 to 1500 |
| O=C(Nc1cc(NCc2cn3cc(C4CC4)cc(N4CCN5CCCC5C4)c3n2)ncn1)[C@H]1C[C@@H]1c1cccc(Cl)c1 (stereo partly drawn) [Example I-200, (1S,2S)-2-(3-chlorophenyl)-N-(6-(((6-cyclopropyl-8-(hexahydropyrrolo[1,2-a]pyrazin-2(1H)-yl)imidazo[1,2-a]pyridin-2-yl)methyl)amino)pyrimidin-4-yl)cyclopropane-1-carboxamide] | < 1 | 400 to 1500 |
| O=C(Nc1nsc(NCc2cn3cc(C4CC4)ccc3n2)n1)[C@H]1C[C@@H]1c1cccc(Cl)c1 [Example 610, (1S,2S)-2-(3-chlorophenyl)-N-(5-(((6-cyclopropylimidazo[1,2-a]pyridin-2-yl)methyl)amino)-1,2,4-thiadiazol-3-yl)cyclopropane-1-carboxamide] | 1 to 10 | 10000 to 48000 |
| CN1CCN(c2cc(C3CC3)cn3cc(CNc4nccc(NC(=O)[C@H]5C[C@@H]5c5cccc(Cl)c5)n4)nc23)CC1 [Example 613, (1S,2S)-2-(3-chlorophenyl)-N-(2-(((6-cyclopropyl-8-(4-methylpiperazin-1-yl)imidazo[1,2-a]pyridin-2-yl)methyl)amino)pyrimidin-4-yl)cyclopropane-1-carboxamide] | 1 to 10 | 400 to 1500 |
| COCc1nc(NC(=O)[C@H]2C[C@@H]2c2nccc(C)n2)cc(N(C)Cc2cn3cc(C4CC4)cc(N4CC(=O)N(C)C4=O)c3n2)n1 [Example 354, (1S,2S)-N-(6-(((6-cyclopropyl-8-(3-methyl-2,4-dioxoimidazolidin-1-yl)imidazo[1,2-a]pyridin-2-yl)methyl)(methyl)amino)-2-(methoxymethyl)pyrimidin-4-yl)-2-(4-methylpyrimidin-2-yl)cyclopropane-1-carboxamide] | < 1 | < 400 |

Further lines, results first:

| EC50 [1] [nM] | IC90 (plasma kallikrein) [nM] | Compound |
| --- | --- | --- |
| < 1 | 1500 to 10000 | O=C(Nc1cc(NCc2cn3cc(C4CC4)cc(N4C(=O)C5CCC4C5)c3n2)ccn1)[C@H]1C[C@@H]1c1cccc(Cl)c1 (stereo partly drawn) [Example 92, (1S,2S)-2-(3-chlorophenyl)-N-(4-(((6-cyclopropyl-8-(3-oxo-2-azabicyclo[2.2.1]heptan-2-yl)imidazo[1,2-a]pyridin-2-yl)methyl)amino)pyridin-2-yl)cyclopropane-1-carboxamide] |
| < 1 | < 400 | Cc1ccnc([C@H]2C[C@@H]2C(=O)Nc2cc(NCc3cn4cc(C5CC5)cc(N5C(=O)N(C)C(=O)C56CC6)c4n3)nc(C)n2)n1 [Example 357, (1S,2S)-N-(6-(((6-cyclopropyl-8-(6-methyl-5,7-dioxo-4,6-diazaspiro[2.4]heptan-4-yl)imidazo[1,2-a]pyridin-2-yl)methyl)amino)-2-methylpyrimidin-4-yl)-2-(4-methylpyrimidin-2-yl)cyclopropane-1-carboxamide] |
| < 1 | > 48000 | CCOC(=O)CN1CCN(c2cc(C3CC3)cn3cc(CNc4ccnc(NC(=O)[C@H]5C[C@@H]5c5cccc(Cl)c5)c4)nc23)CC1 [Example 600, ethyl 2-(4-(2-(((2-((1S,2S)-2-(3-chlorophenyl)cyclopropane-1-carboxamido)pyridin-4-yl)amino)methyl)-6-cyclopropylimidazo[1,2-a]pyridin-8-yl)piperazin-1-yl)acetate] |
| < 1 | 400 to 1500 | CN1C(=O)CN(c2cc(C3CC3)cn3cc(CNc4cc(NC(=O)[C@H]5C[C@@H]5c5cccc(Cl)c5)ncn4)nc23)C1=O [Example I-169, (1S,2S)-2-(3-chlorophenyl)-N-(6-(((6-cyclopropyl-8-(3-methyl-2,4-dioxoimidazolidin-1-yl)imidazo[1,2-a]pyridin-2-yl)methyl)amino)pyrimidin-4-yl)cyclopropane-1-carboxamide] |
| < 1 | 400 to 1500 | Cc1ccnc([C@H]2C[C@@H]2C(=O)Nc2nccc(N3C[C@@H](O)C[C@@H]3c3cn4cc(C5CC5)cc(N5CC(=O)N(C)C5=O)c4n3)n2)n1 (relative stereo) [Example 541, rac-(1S*,2S*)—N-(4-((2R,4S)-2-(6-cyclopropyl-8-(3-methyl-2,4-dioxoimidazolidin-1-yl)imidazo[1,2-a]pyridin-2-yl)-4-hydroxypyrrolidin-1-yl)pyrimidin-2-yl)-2-(4-methylpyrimidin-2-yl)cyclopropane-1-carboxamide] |
| < 1 | 1500 to 10000 | Cc1ccnc([C@H]2C[C@@H]2C(=O)Nc2cc(NCc3cn4cc(C5CC5)cc(N5CC(=O)N(COP(=O)(O)O)C5=O)c4n3)ncn2)n1 [Example 466, (3-(6-cyclopropyl-2-(((6-((1S,2S)-2-(4-methylpyrimidin-2-yl)cyclopropane-1-carboxamido)pyrimidin-4-yl)amino)methyl)imidazo[1,2-a]pyridin-8-yl)-2,5-dioxoimidazolidin-1-yl)methyl dihydrogen phosphate] |
| < 1 | 400 to 1500 | Cc1ccnc([C@H]2C[C@@H]2C(=O)Nc2cc(NCc3nc4c(N5CC(=O)N(C)C5=O)cc(C5CC5)cn4c3F)ncn2)n1 [Example 379, (1S,2S)-N-(6-(((6-cyclopropyl-3-fluoro-8-(3-methyl-2,4-dioxoimidazolidin-1-yl)imidazo[1,2-a]pyridin-2-yl)methyl)amino)pyrimidin-4-yl)-2-(4-methylpyrimidin-2-yl)cyclopropane-1-carboxamide] |
